Here are results for three compounds from ChEMBL document CHEMBL3886340, “2-substituted-3-phenylpropionic acid derivatives and their use in the treatment of inflammatory bowel disease” (2015).

Each structure is given as a SMILES string.

The target of assay [1] is T1, Peroxisome proliferator-activated receptor alpha (Homo sapiens, UniProt Q07869).
T1 sequence (Q07869 whole entry): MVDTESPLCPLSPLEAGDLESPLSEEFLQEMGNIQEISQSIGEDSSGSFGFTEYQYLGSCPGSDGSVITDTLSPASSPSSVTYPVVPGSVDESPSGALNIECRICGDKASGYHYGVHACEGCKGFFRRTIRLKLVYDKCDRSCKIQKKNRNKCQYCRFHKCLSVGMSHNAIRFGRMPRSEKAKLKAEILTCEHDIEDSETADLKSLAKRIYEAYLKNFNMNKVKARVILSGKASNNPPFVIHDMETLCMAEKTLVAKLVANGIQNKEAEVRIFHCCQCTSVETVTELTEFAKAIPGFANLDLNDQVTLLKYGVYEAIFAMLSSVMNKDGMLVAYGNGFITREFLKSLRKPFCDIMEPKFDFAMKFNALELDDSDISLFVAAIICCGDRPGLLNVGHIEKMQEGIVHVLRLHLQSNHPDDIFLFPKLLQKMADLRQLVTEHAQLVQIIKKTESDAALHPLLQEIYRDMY
The assay can be described thus: (§1) Reporter Gene Assay: Transactivation Assay Expression vectors were prepared by inserting the ligand binding domain cDNA (complementary DNA) of human PPARalpha (amino acid 168-468) and human PPARgamma (amino acid 205-505), 3′ to and in frame with, the yeast GAL4 transcription factor DNA binding domain and the nuclear localization signal from the T-antigen of Polyoma Virus into the mammalian expression vector pSGS (Stratagene). The resulting expression vectors pSGGAL-PPARalpha and pSGGAL-PPARgamma were used in co-transfection experiments together with a modified pGL3 promoter plasmid (Promega) containing five copies of the UAS GAL4 recognition site. 2.5 μg pSGGAL-PPARalpha or pSGGAL-PPARgamma were mixed with 25 μg pGL3p […] and 22.5 μg pBluescript (Stratagene) in 0.95 mL ice cold PBS containing between 9-12 million U-2 OS (human osteosarcoma) cells. The cell/DNA mixture was incubated on ice for 5 minutes and then divided between two 0.4 cm cuvettes and electroporated at 960 μF, 2.

In assay [2] the target is T2, Peroxisome proliferator-activated receptor gamma (Homo sapiens, UniProt P37231).
T2 sequence (P37231 whole entry): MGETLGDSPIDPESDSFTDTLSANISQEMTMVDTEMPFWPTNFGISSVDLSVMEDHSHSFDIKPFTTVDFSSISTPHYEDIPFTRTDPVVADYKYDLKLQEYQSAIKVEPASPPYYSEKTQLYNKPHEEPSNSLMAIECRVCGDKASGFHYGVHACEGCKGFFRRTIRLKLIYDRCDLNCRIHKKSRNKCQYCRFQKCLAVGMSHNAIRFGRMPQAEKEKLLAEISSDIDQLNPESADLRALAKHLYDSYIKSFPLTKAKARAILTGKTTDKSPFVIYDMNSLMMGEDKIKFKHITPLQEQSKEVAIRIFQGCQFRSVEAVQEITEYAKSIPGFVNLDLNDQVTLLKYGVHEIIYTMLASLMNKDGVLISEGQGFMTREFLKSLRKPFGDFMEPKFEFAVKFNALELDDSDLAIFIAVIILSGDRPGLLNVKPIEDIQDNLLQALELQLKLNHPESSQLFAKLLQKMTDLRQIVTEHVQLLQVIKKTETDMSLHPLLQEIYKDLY
The assay is described as §1.

The EC50 is the concentration that produces a half-maximal response. `CS(=O)(=O)Oc1ccc(C(=O)OCc2ccc(CC(SCCc3ccc(F)cc3)C(=O)O)cc2)cc1` (stereo unspecified): the EC50 in assay [1] came to 0.24 µM; in assay [2], 1.8 µM.

Regarding `O=C(Cc1ccccn1)OCc1ccc(CC(SCCc2ccc(F)cc2)C(=O)O)cc1` (stereo unspecified), the EC50 turned out to be 1.5 µM in assay [1] and 2.1 µM in assay [2].

With `CS(=O)(=O)Oc1ccc(CC(=O)OCc2ccc(CC(SCCc3ccc(F)cc3)C(=O)O)cc2)cc1` (stereo unspecified), the EC50 in assay [1] turned out to be 0.24 µM; in assay [2] it was 1.7 µM.
